In ChEMBL document CHEMBL4837225, “Water-soluble derivatives of evodiamine: Discovery of evodiamine-10-phosphate as an orally active antitumor lead compound” (Eur J Med Chem, 2021):
Converted amounts (≈) assume the structure as drawn. The source made the active and inactive calls. The rule behind the calls is not given here.

How the values were obtained:
[1] = system: HCT-116; experiment: Antiproliferative activity against human HCT-116 cells assessed as inhibition of cell proliferation incubated for 72 hrs by CCK8 assay; format: functional, cell-based; settings: HCT-116, 72 h
[2] = system: MDA-MB-231; experiment: Antiproliferative activity against human MDA-MB-231 cells assessed as inhibition of cell proliferation incubated for 72 hrs by CCK8 assay; format: functional, cell-based; settings: MDA-MB-231, 72 h
[3] = Solubility of the compound in double distilled water; format: physicochemical
[4] = Toxicity in BALB/c nude mouse xenografted with human HCT-116 cells assessed as effect on body weight at 60 mg/kg, po bid for 21 days relative to control; format: organism-based; settings: in vivo, 504 h, time 21 day
[5] = system: HCT-116; experiment: Induction of apoptosis in human HCT-116 cells assessed as early apoptotic cells level at 0.1 uM incubated for 48 hrs by annexin V-FITC/propidium iodide staining based flow cytometry (reference value: 2.02%); format: functional
[6] = system: HCT-116; experiment: Induction of apoptosis in human HCT-116 cells assessed as upregulation of Bax expression at 0.2 to 5 uM measured after 24 hrs by Western blot analysis; format: functional, cell-based; settings: dose 0.2-5 µM
[7] = system: HCT-116; experiment: Induction of apoptosis in human HCT-116 cells assessed as downregulation of Bcl-2 expression at 0.2 to 5 uM measured after 24 hrs by Western blot analysis; format: functional, cell-based; settings: dose 0.2-5 µM
[8] = system: HCT-116; experiment: Induction of apoptosis in human HCT-116 cells assessed as increase in ratio of Bax to Bcl2 level at 0.2 to 5 uM measured after 24 hrs by Western blot analysis; format: functional, cell-based; settings: dose 0.2-5 µM
[9] = system: HCT-116; experiment: Induction of apoptosis in human HCT-116 cells assessed as increase in p-53 level at 0.2 to 5 uM measured after 24 hrs by Western blot analysis; format: functional, cell-based; settings: dose 0.2-5 µM
[10] = system: HCT-116; experiment: Cell cycle arrest in human HCT-116 cells assessed as accumulation at G1 phase at 0.1 uM incubated for 24 hrs by propidium iodide staining based flow cytometric analysis (Rvb =35.7 %); format: functional
[11] = system: HCT-116; experiment: Cell cycle arrest in human HCT-116 cells assessed as accumulation at S phase at 0.5 uM incubated for 24 hrs by propidium iodide staining based flow cytometric analysis (Rvb =44.3 %); format: functional

## CN1c2ccccc2C(=O)N2CCc3c([nH]c4ccc(OP(=O)(O)O)cc34)C21 (stereo unspecified)
[1]
  IC50: 66 nM
[2]
  IC50: 650 nM
[3]
  solubility: 36 µg/mL (≈ 90.1 µM)
[4]
  Activity: Non-Toxic
[5]
  Activity: 38.55%
[6]
  Activity: Active
[7]
  Activity: Active
[8]
  Activity: Active
[9]
  Activity: Active
[10]
  Activity: 6%
[11]
  Activity: 30.4%
